Assay results as given in patent US9457101B2, “Hydrogels for delivery of therapeutic polypeptides” (priority 2012, dated 2016).
Read-outs that look alike come from different tables or passages of the source.

Experiments:
[1] = tested on: blood vessels per area formed in the hydrogel; experiment: Mouse angiogenesis model, subcutaneous hydrogel implants; format: in vivo, mice; settings: GM6001 intraperitoneally 0.1 mg/g once daily for two weeks
Excerpt: PEGDA:GSH hydrogel is loaded with one or more GST-polypeptide fusions having a cleavage site for matrix metalloprotease-9 between GST and the polypeptide. Matrix metalloprotease-9 (MMP-9) recognizes the cleavage site having the amino acid sequence […] (SEQ ID NO:5). The loaded hydrogel is implanted in a mouse angiogenesis model to assess the bioactivity of the released polypeptides. Particularly, the polypeptides eGFP (i.e., Green Fluorescent Protein), mCherry (Red Fluorescent Protein), and a cell lytic polypeptide having the amino acid sequence […] (SEQ ID NO:3) are examined in this angiogenesis model.
Specifically, mice are administered an intraperitoneal injection of ketamine and xylazine (100 mg/kg and 5 mg/kg, respectively), and an injection site is rubbed with 75% ethanol. Anesthesia is indicated by a toe pinch reflex test. All instruments are autoclaved prior to use and standard aseptic technique is followed for the procedure as detailed below. […]
After 14 days, the inserted hydrogels are removed for whole mount immunostaining to determine the number of blood vessels per area formed in the hydrogel. […] Particularly, after one-hour of blocking, the hydrogel is incubated with anti-CD31 antibody overnight at 4 degrees Celsius to allow for fluorescence imaging of the endothelium formed about and/or within the hydrogel. […]

[2] = molecular target: glutathione s-transferase; settings: read-out: dissociation constant of glutathione from glutathione s-transferase; cited from earlier work
[3] = below 1 mM GSH, after 6 days
Experimental: Protein Release. GSH mediated release studies were carried out over 6 days. Protein release was measured from 10,000 to 20,000 microspheres into 500 μL PBS in the presence and absence of glutathione. Release was measured with three independent replicates per experimental group. […] Therefore, at each 24-hour time point, glutathione containing buffers were completely replaced. The buffer that was removed was frozen for later analysis. At the completion of the experiment, all frozen samples were thawed and 50 μL of each samples were diluted in PBS and read on a Quantech fluorometer.

thrombin = experiment: Kinetics of thrombin cleavage of GST-GFP (SDS-PAGE densitometry); format: biochemical; settings: for Km: read-out: Michaelis-Menten constant (Km) of thrombin to GST-GFP
Experimental: Reaction kinetics were measured by semi-quantitative densitometry of SDS-PAGE gels. Reactions with equivalent concentrations of GST-GFP substrate and varying concentrations of thrombin (0.1, 0.33, 0.75, 1.5, and 3 μM) were incubated at 37° C. for varying amounts of time. In groups where cleavage from microspheres was reported, approximately 10,000 microspheres were used. Reactions were stopped by addition of Laemmli sample buffer (containing SDS) and stored at 4° C. until run on SDS-PAGE. All gels were run with known concentrations of BSA standards. Density measurements were made with NIH imageJ software with gel backgrounds normalized. Each thrombin concentration was run one time, except for […], which was ran in biological triplicate.

S. pyogenes = experiment: Bacterial growth inhibition by free proteins (A600); format: cell-based; settings: 10 μM, at 5 hours
Experimental: Bacterial Growth Inhibition. Following digestion with thrombin as described above, GSH-agarose beads (GoldBio, St. Louis, Mo.) were used to separate GST from recombinant melittin. Synthetic melittin and GST-6xHis-melittin underwent a similar process without thrombin or being subjected to GSH-agarose treatment. Overnight cultures of S. pyogenes (ATCC, Manassas, Va., BAA-1633) cells were diluted in chemically defined medium were diluted to approximately 10^8 colony forming units (CFUs), corresponding to an absorbance at 600 nm (A600) of 0.1, and 150 μL distributed into 96-well, optical-bottom plates (Greiner BioOne, Frickenhausen, Germany) for treatment. GST-6xHis-melittin, recombinant melittin, or synthetic melittin (10 μM) were then added and the plate was incubated at 37° C. with shaking using a Biotek Synergy 2 plate reader (Winooski, Vt.). Absorbance (A600) measurements were obtained every ten minutes for 12 hours.

U-87 MG cells = experiment: Tumor cell growth inhibition (MTS assay); format: cell-based; settings: 10 μM protein (thrombin 2 U), fusion without thrombin
Experimental: Tumor Cell Growth Inhibition. All proteins were incubated with thrombin at 37° C. for two hours prior to cellular assays. Malignant glioma cells, U-87 MG, (ATCC, Manassas, Va., 3,000 cells/cm^2) were seeded in a 96 well plate together with appropriate treatments in 100 μL DMEM and 10% FCS (Sigma-Aldrich, St. Louis, Mo.). Treatments included a cell only control (untreated), thrombin (2 U), GST (10 μM), GST-6xHis-melittin (10 μM), GST-6xHis-melittin (10 μM) simultaneously with thrombin (2 U), or synthetic melittin (10 μM; GenScript RP20415, Sigma-Aldrich, St. Louis, Mo.). The cells with their respective treatments were incubated at 37° C. in 5% CO2 overnight, approximately 16 hours. The MTS assay (Promega, Madison, Wis., CellTitre96) was performed according to the manufacturer recommendation and incubated for two hours before reading absorbance at 495 nm on a Labsystems Multiskan plus plate reader (Thermo Scientific, Hanover Park, Ill.).

Compound: CNC(=O)[C@H](Cc1c[nH]c2ccccc12)NC(=O)[C@@H](CC(=O)NO)CC(C)C [GM6001]
- vessel growth in the hydrogel [1]: limited vessel growth

Compound: N[C@@H](CCC(=O)N[C@@H](CS)C(=O)NCC(=O)O)C(=O)O [glutathione]
- Kd [2]: 22 µM

Compound: GST-GFP
- protein remaining associated with the particles [3]: more than 80%
- apparent Vmax of thrombin mediated release (thrombin): 0.13 µg/min
- Km (thrombin; GST-GFP in association with PEGDA-GSH microspheres): ~0.3 µM
- Km (thrombin; free GST-GFP): ~0.18 µM

Compound: recombinant melittin: melittin cleaved by thrombin from purified recombinant GST-6xHis-melittin
- growth of S. pyogenes (S. pyogenes): almost completely inhibited the growth

Compound: CC[C@H](C)[C@H](NC(=O)CN)C(=O)NCC(=O)N[C@@H](C)C(=O)N[C@H](C(=O)N[C@@H](CC(C)C)C(=O)N[C@@H](CCCCN)C(=O)N[C@H](C(=O)N[C@@H](CC(C)C)C(=O)N[C@H](C(=O)N[C@H](C(=O)NCC(=O)N[C@@H](CC(C)C)C(=O)N1CCC[C@H]1C(=O)N[C@@H](C)C(=O)N[C@@H](CC(C)C)C(=O)N[C@H](C(=O)N[C@@H](CO)C(=O)N[C@@H](Cc1c[nH]c2ccccc12)C(=O)N[C@H](C(=O)N[C@@H](CCCCN)C(=O)N[C@@H](CCCNC(=N)N)C(=O)N[C@@H](CCCCN)C(=O)N[C@@H](CCCNC(=N)N)C(=O)N[C@@H](CCC(N)=O)C(=O)N[C@@H](CCC(N)=O)C(N)=O)[C@@H](C)CC)[C@@H](C)CC)[C@@H](C)O)[C@@H](C)O)C(C)C)C(C)C [synthetic melittin, melittin, reference compound]
- survival of U-87 MG cells (U-87 MG cells): 15%
- growth of S. pyogenes (S. pyogenes): almost completely inhibited the growth
